From patent US7264811B2, “Purified active HCV NS2/3 protease” (priority 2000, dated 2007)
Where a SMILES comes first, the peptide text is derived from it.

Molecular target: T1, NS2/3 protease (Hepatitis C virus genotype 1b, UniProt P26663)
T1 construct: In a well defined assay system using purified NS2/3 (904-1206) and an optimized cleavage buffer; made in house; host or cells: E. coli BL21(DE3)pLysS
Assay: biochemical
Parameters: species or system Hepatitis C virus (HCV) genotype 1b
Settings: for trans-cleavage of the peptide by NS2/3 protease: identical assay conditions, data not shown
Protocol: NS2/3 protease cleavage-site derived peptides were evaluated as potentially competing substrates (Table 1). NS2/3 protease cleavage-site derived peptides and NS4A-derived peptides were synthesized in-house using the standard solid-phase methodology or were made by Multiple Peptide Systems (San Diego, Calif.). Various concentrations of peptides were pre-incubated with 0.54 μM NS2/3 protease for 30 min at 23° C. in 50 mM Hepes, pH 7.0, and 50% (w/v) glycerol. The autocleavage reaction was initiated by addition of n-dodecyl-β-D-maltoside to a final concentration of 0.5%. The final DMSO content never exceeded 5% (v/v). The resulting mixture was then incubated for 3 h at 23° C. The reaction was stopped and quantified.

SMILES | IC50 | trans-cleavage of the peptide by NS2/3 protease
CC[C@H](C)[C@H](NC(=O)[C@@H]1CCCN1C(=O)[C@H](C)NC(=O)[C@H](CC(C)C)NC(=O)[C@H](CC(C)C)NC(=O)[C@H](CCCNC(=N)N)NC(=O)[C@H](Cc1c[nH]c2ccccc12)NC(=O)CNC(=O)[C@H](CCC(N)=O)NC(=O)CNC(=O)[C@H](CCC(=O)O)NC(=O)[C@H](Cc1ccccc1)NC(=O)[C@@H](N)CO)C(=O)N[C@H](C(=O)N[C@@H](C)C(=O)N[C@@H](Cc1ccc(O)cc1)C(=O)N[C@@H](CO)C(=O)N[C@@H](CCC(N)=O)C(=O)N[C@@H](CCC(N)=O)C(=O)N[C@H](C(=O)O)[C@@H](C)O)[C@@H](C)O [Peptide 1, SFEGQGWRLL-APITAYSQQT] | 270 µM | no trans-cleavage
CC(C)C[C@H](NC(=O)[C@H](CC(C)C)NC(=O)[C@H](CCCNC(=N)N)NC(=O)[C@H](Cc1c[nH]c2ccccc12)NC(=O)CNC(=O)[C@H](CCC(N)=O)NC(=O)CNC(=O)[C@H](CCC(=O)O)NC(=O)[C@H](Cc1ccccc1)NC(=O)[C@@H](N)CO)C(=O)O [Peptide 2, SFEGQGWRLL] (H-SFEGQGWRLL-OH; N-terminus and C-terminus assumed) | 90 µM | 
CC[C@H](C)[C@H](NC(=O)[C@@H]1CCCN1C(=O)[C@H](C)N)C(=O)N[C@H](C(=O)N[C@@H](C)C(=O)N[C@@H](Cc1ccc(O)cc1)C(=O)N[C@@H](CO)C(=O)N[C@@H](CCC(N)=O)C(=O)N[C@@H](CCC(N)=O)C(=O)N[C@H](C(=O)O)[C@@H](C)O)[C@@H](C)O [Peptide 3, APITAYSQQT] (H-APITAYSQQT-OH) | > 1000 µM | 
CC[C@H](C)[C@H](NC(=O)[C@@H]1CCCN1C(=O)[C@H](C)NC(=O)[C@H](CC(C)C)NC(=O)[C@H](CC(C)C)NC(=O)[C@H](CCCNC(=N)N)NC(=O)[C@H](Cc1c[nH]c2ccccc12)NC(=O)CNC(=O)[C@@H](N)CCCCN)C(=O)N[C@H](C(=O)N[C@@H](C)C(=O)N[C@@H](Cc1ccc(O)cc1)C(=O)O)[C@@H](C)O [Peptide 4, KGWRLL-APITAY] | 630 µM | no trans-cleavage
CC[C@H](C)[C@H](NC(=O)[C@@H]1CCCN1C(=O)[C@H](C)N)C(=O)N[C@H](C(=O)N[C@@H](C)C(=O)N[C@@H](Cc1ccc(O)cc1)C(=O)O)[C@@H](C)O [Peptide 5, APITAY] (H-APITAY-OH) | 1000 µM | 
